For experiment [1], the target named is recombinant human I-domain (Homo sapiens, UniProt P11215). In kind it is binding.
A further experiment has as its target PFO (Clostridium perfringens, UniProt P0C2E9). Description: biochemical. In kind it is binding.
In another experiment the target is Ply (Streptococcus pneumoniae, UniProt Q7ZAK5). Description: biochemical. In kind it is binding.
Experiment [2] has as its target T1, SLO (Streptococcus pyogenes serotype M1, UniProt P0C0I3). Description: biochemical. The format is binding.
Another experiment deals with SLY (Streptococcus suis, UniProt Q55996). The format is binding.
A further experiment concerns the target SLY D4 (Streptococcus suis, UniProt Q55996). The format is binding.
Experiment [3] addresses T1, SLO. In kind it is cell-based.
For the next experiment, the target named is LLO (Listeria monocytogenes serovar 1/2a, UniProt P13128). The format is binding.
The target in another experiment is ILY (Streptococcus intermedius, UniProt Q9LCB8). Nature of the experiment: biochemical. In kind it is binding.

Like-named read-outs stand apart in the source and are kept apart here.

This note sets out measurements from PMC7244308 (Science Advances, 2020).

Chain of Ply (Q7ZAK5 whole entry, looked up): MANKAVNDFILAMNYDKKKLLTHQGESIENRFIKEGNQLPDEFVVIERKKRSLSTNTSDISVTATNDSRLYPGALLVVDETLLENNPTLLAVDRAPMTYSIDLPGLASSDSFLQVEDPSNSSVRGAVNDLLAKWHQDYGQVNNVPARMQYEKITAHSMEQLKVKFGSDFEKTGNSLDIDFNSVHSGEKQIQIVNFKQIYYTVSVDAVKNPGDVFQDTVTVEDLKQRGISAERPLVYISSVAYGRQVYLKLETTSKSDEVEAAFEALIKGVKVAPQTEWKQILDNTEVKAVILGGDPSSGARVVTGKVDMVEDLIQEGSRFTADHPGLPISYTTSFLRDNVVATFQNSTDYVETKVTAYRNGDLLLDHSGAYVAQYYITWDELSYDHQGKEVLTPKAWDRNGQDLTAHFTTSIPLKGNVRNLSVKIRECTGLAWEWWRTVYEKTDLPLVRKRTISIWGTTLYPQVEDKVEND
T1 sequence (P0C0I3 34-571 limits assumed): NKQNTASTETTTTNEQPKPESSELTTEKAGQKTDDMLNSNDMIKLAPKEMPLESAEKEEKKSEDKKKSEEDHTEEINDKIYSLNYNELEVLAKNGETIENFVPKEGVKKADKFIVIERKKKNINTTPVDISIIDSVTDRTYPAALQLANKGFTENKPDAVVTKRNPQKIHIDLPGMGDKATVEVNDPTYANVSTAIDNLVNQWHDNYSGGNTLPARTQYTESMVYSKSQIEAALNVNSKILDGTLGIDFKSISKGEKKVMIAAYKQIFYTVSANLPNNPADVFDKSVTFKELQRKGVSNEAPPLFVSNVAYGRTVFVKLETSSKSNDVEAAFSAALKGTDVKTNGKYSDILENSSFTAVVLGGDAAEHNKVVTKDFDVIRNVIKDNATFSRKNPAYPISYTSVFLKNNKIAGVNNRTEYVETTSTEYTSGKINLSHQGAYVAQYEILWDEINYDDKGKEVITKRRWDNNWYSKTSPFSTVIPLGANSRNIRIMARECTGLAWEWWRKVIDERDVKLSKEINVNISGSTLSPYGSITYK
Chain of PFO (P0C2E9 29-500 limits assumed): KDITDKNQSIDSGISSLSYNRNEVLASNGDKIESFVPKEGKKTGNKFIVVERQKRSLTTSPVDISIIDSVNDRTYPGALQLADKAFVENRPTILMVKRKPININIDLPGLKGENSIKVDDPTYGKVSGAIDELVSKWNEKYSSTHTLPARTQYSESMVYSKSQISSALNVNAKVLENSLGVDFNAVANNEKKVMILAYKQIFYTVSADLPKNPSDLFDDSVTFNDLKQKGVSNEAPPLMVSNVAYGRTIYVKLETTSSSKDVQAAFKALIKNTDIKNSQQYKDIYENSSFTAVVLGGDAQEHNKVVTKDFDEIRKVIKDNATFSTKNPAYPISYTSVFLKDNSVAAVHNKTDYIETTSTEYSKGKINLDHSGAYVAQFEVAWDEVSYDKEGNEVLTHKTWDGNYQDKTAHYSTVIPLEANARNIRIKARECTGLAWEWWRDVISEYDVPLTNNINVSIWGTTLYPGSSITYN
Chain of recombinant human I-domain (P11215 150-328): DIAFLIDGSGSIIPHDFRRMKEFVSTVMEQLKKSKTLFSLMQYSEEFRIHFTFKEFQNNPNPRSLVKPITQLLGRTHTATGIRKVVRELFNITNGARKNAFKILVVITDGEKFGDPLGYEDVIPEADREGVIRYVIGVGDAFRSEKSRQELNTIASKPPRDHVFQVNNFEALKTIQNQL
Chain of LLO (P13128 25-529 limits assumed): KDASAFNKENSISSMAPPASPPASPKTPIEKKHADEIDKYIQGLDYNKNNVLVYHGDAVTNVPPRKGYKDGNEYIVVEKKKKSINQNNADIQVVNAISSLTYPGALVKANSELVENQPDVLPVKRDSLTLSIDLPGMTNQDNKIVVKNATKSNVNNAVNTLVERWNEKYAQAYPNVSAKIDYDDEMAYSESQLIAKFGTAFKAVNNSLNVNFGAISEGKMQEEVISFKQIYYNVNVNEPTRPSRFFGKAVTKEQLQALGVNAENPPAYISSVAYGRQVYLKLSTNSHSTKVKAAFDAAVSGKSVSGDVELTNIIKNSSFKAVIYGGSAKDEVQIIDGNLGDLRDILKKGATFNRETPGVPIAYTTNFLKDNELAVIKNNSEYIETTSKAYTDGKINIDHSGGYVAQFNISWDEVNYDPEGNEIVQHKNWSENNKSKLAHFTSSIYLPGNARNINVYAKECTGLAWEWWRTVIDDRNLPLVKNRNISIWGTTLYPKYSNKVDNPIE

For “Ply: pneumolysin, CDC toxin from Streptococcus pneumoniae, recombinant His-tagged”, the Kd in [1] was 0.0223 µM.
Compound `O=C[C@H](O)[C@@H](O)[C@H](O[C@@H]1O[C@H](CO)[C@@H](O)[C@H](O)[C@H]1O)[C@H](O)CO` [Cellobiose] returned a dissociation constant Kd at PFO (KD) of 34 µM.
In the case of `CC(C)CCC[C@@H](C)[C@H]1CC[C@H]2[C@@H]3CC=C4C[C@@H](O)CC[C@]4(C)[C@H]3CC[C@]12C` [Cholesterol], the Kd at Ply (KD) is 1 µM; on SLO [2] (KD), 0.189 µM; at PFO (KD), 0.296 µM.
With `C[C@@H]1O[C@@H](O[C@H]2C(O)O[C@H](CO)[C@H](O)[C@@H]2O)[C@@H](O)[C@H](O)[C@@H]1O` (stereo partly shown) [BGH di, blood group H antigen disaccharide], the Kd on SLY worked out at 19 µM; on SLO [2] it was 0.603 µM; on SLY D4 it was 26 µM.
For the compound `CC(=O)[C@H]1CC[C@H]2[C@@H]3CC=C4C[C@@H](O)CC[C@]4(C)[C@H]3CC[C@]12C` [pregnenolone], at Ply, the equilibrium dissociation constant (Kd) is approximately 0.0004 µM and the “binding in SPR drug library screen” value is listed as “binds”. On SLO [2], the “binding in SPR drug library screen” value was “binds”.
For the compound pregnenolone sulfate (sodium salt) [PS], at SLO [3], the “effect on SLO hemolytic activity” value is reported as “inhibit”. In addition, the “competition with cholesterol (competitive SPR)” value on Ply, on SLO [2] and on LLO was “compete directly” throughout.
As for `CC(=O)N[C@H]1[C@H]([C@H](O)[C@H](O)CO)O[C@@](O[C@H]2[C@@H](O)[C@@H](CO)O[C@@H](O[C@@H]([C@H](O[C@@H]3O[C@@H](C)[C@@H](O)[C@@H](O)[C@@H]3O)[C@H](C=O)NC(C)=O)[C@H](O)CO)[C@@H]2O)(C(=O)O)C[C@@H]1O` [sLeX, sialyl-Lewis X], the Kd was found to be 1.3 µM on Ply (KD), 3.1 µM on SLO [2] (KD), 3.9 µM at PFO (KD) and 2.8 µM at ILY (KD).
As to `CC(=O)N[C@H]1[C@H](O[C@H]2[C@@H](O)[C@@H](CO)O[C@@H](O[C@H]3[C@H](O)[C@@H](O)C(O)O[C@@H]3CO)[C@@H]2O)O[C@H](CO)[C@@H](O[C@@H]2O[C@H](CO)[C@H](O)[C@H](O)[C@H]2O)[C@@H]1O` (mixture of isomers) [LNnT, lacto-N-neotetraose], the dissociation constant (Kd) was 0.00093 µM at SLO [2], 2.8 µM at PFO and 4.9 µM on ILY.
